12 compounds from US7947726B2, “Non-steroidal ligands for the glucocorticoid receptor, and compositions thereof” (The Regents of the University of California, priority 2002, dated 2011) can be followed below.

Experiment [1] concerns the target T1, GR (Homo sapiens, UniProt P04150).
T1 construct: expressed in transfected cells; host or cells: CV-1 cells, transient transfection (plasmid a gift of Keith Yamamoto, UCSF)
T1 sequence (P04150 1-777): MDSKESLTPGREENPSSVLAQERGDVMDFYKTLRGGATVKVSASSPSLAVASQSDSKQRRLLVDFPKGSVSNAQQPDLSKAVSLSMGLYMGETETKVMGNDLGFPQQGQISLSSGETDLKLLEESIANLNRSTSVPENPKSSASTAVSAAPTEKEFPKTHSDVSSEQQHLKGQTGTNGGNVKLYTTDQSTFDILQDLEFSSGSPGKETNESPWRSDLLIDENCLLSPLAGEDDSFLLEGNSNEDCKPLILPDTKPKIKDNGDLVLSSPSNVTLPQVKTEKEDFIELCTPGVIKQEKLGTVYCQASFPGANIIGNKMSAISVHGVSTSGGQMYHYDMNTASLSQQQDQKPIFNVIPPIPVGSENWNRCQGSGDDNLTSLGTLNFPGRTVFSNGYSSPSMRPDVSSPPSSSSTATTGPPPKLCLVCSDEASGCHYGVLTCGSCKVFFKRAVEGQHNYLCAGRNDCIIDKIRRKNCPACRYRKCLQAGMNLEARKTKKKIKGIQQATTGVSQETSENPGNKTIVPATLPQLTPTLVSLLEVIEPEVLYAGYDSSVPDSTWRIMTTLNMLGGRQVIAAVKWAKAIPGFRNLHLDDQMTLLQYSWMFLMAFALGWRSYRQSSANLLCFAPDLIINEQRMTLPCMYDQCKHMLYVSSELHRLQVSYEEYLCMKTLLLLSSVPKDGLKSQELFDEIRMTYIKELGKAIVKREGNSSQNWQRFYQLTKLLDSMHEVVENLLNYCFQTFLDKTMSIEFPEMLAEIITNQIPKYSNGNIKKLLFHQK
As to the kind of experiment: GRE (TAT3-Luc) activation luciferase assay in CV-1 cells transfected with GR. Format: cell-based. As to the method:
Cells were plated into tissue culture treated, 96 well flat bottom plates (25,000 cells/well), and incubated for 12 h at 37° C. Cells were then transfected using the Lipofectamine PLUS transfection reagent (Gibco BRL). DNA-lipid complexes of 5 ng GR, 50 ng TAT3-Luc, 7.5 ng β-galactosidase, 1 μL-well PLUS reagent and 0.67 μL-well lipofectamine in 50 μL/well serum free media were added to cells and incubated for 4 h at 37° C. Complexes were removed and hormones diluted in 5% charcoal-stripped FBS were added to the cells, which were then incubated for 24 hours at 37° C. Media was removed and the cells were washed with 100 μL Ca^+2, Mg^+2 free phosphate buffered saline (PBS). Lysis was achieved by adding 50 μL of Passive Lysis Buffer (Promega Corp, Madison, Wis.) and shaking the plate for 15 min. 15 μL of this lysate was then used to assay β-galactosidase activity (β-galactosidase enzyme assay system, Promega Corp., recommended procedures followed). The Luciferase Assay System (Promega Corp.) was used to assay luciferase activity. 100 μL of luciferase assay reagent was added rapidly to the plate and luminescence was measured for 10 ms/well on an Analyst AD Detection System (LJL Biosystems, Sunnyvale, Calif.).

For experiment [2], the target named is T2, glucocorticoid receptor (GR) (Homo sapiens, UniProt P04150).
T2 construct: purchased Panvera Corp, Madison, Wis
T2 sequence (P04150 1-777): T1 sequence (P04150 1-777)
Kind of experiment: Glucocorticoid Receptor Competitor Assay Kit (Panvera) ligand binding. To be noted: for GR binding RBA (dex = 100): Table 3; for GR binding RBA (dex = 100) / GR Binding RBA (dexamethasone = 100): relative binding affinity, dexamethasone = 100; for GR Binding RBA (dexamethasone = 100): Table 1. An excerpt: The Glucocorticoid Receptor Competitor Assay Kit (Panvera Corp, Madison, Wis.) was used for ligand binding studies. The recommended room temperature protocol was followed for all assayed ligands.

Another experiment has as its system Coll A. As to the kind of experiment: Coll A repression. The experiment is classed as cell-based. To be noted: for Emax: read-out: Repression Coll A % max repression; for EC50: read-out: Repression Coll A pot (EC50).
For experiment [3], the target named is T3, GR (Rattus norvegicus, UniProt P06536).
T3 construct: expressed in transfected cells; gift of Keith Yamamoto
T3 sequence (P06536 1-795): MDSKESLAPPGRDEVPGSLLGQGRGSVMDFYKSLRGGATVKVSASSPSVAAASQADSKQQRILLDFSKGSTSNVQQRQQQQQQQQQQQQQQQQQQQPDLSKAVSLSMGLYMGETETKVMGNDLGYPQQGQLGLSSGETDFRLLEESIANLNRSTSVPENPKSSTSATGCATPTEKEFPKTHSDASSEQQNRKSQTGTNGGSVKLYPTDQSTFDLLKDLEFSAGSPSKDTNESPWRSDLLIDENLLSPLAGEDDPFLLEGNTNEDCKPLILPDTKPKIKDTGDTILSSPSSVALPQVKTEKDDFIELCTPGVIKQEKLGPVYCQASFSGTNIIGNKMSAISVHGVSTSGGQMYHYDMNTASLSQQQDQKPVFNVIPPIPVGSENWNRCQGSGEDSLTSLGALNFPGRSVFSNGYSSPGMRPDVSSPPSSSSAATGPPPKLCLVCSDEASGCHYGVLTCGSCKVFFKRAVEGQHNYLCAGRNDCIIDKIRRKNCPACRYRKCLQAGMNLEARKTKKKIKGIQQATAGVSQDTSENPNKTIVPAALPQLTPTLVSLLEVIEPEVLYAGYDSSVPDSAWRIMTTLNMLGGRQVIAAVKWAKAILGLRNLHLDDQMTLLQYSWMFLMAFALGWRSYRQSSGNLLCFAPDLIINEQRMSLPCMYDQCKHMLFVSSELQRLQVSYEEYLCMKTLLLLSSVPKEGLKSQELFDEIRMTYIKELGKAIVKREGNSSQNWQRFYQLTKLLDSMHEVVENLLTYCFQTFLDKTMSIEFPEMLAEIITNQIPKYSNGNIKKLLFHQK
As to the kind of experiment: AP-1 repression luciferase assay in U2OS cells stably transfected with rat GR. Format: cell-based. The following applies: Table 5, TPA-stimulated U2OS cells; for EC50: read-out: Repression AP-1 pot (EC50); for Emax: U2OS, 12 h, read-out: Repression AP-1 % max repression. As to the method: For API repression assays, U2OS cells stably transfected with rat GR were grown in similar media as for CV-1 cells with the exception of the FBS concentration, which was 10% and the only antibiotic was […]. Cells were plated and transfected in a similar fashion, except for plasmids, which in this case were 50 ng/well AP1-Luc and 10 ng/well β-galactosidase. Post-transfection, cells were incubated with either 50 ng/mL TPA (Phorbol 12-myristate 13-acetate), or 50 ng/mL TPA and various hormone dilutions in 10% charcoal treated FBS media. The cells were incubated for 12 h, and the lysis, β-galactosidase assay, and luciferase assay were performed as previously described.

Where [4] appears, read: Table 4, read-out: GR pot (EC50).
[5] abbreviates: Table 2, read-out: GR Binding (IC50).
[6] abbreviates: read-out: IC50 in a GR binding assay.

The structures appear in SMILES notation. Like-named read-outs stand apart in the source and are kept apart here.

Regarding `CC12Cc3cnn(-c4ccc(F)cc4)c3C=C1CCCC2C(O)c1cc2ccccc2c2ccccc12` (centres unmarked) [Compound 259, [1-(4-Fluoro-phenyl)-4a-methyl-4,4a,5,6,7,8-hexahydro-1H-benzo[f]indazol-5-yl]-phenanthren-9-yl-methanol], the EC50 (in general, the concentration giving half of the maximal effect) on GR [1] (setting [4]) is greater than 5000 nM. The “GR binding RBA (dex = 100)” value in experiment [2] is recorded as 72. Also, in the experiment on Coll A (Table 5), the Emax is 73% and the EC50 is 783 nM.

Regarding `Cc1cc(O)cc(C)c1CC1CCCC2=Cc3c(cnn3-c3ccc(F)cc3)CC21C` (centres unmarked) [Compound 230, 4-{[1-(4-Fluoro-phenyl)-4a-methyl-4,4a,5,6,7,8-hexahydro-1H-benzo[f]indazol-5-yl]-methyl}-3,5-dimethyl-phenol], the “GR Binding RBA (dexamethasone = 100)” value in experiment [2] came out at 22.

Consider `COc1cc(C(O)C2CCCC3=Cc4c(cnn4-c4ccc(F)cc4)CC32C)cc(OC)c1OC` (centres unmarked) [Compound 223, [1-(4-Fluoro-phenyl)-4a-methyl-4,4a,5,6,7,8-hexahydro-1H-benzo[f]indazol-5-yl]-(3,4,5-trimethoxyphenyl)-methanol], for which, at GR [3], the EC50 was 6.7 nM and the Emax is 74%. Also, the “GRE activation max fold activation” value on GR [1] (Table 4, fold) came out at 32 ± 2. Besides, on GR [1] (setting [4]), the EC50 came out at 143 ± 27 nM. For the same compound, the “GR binding RBA (dex = 100)” value in experiment [2] came out at 47.

With `CC12Cc3cnn(-c4ccc(F)cc4)c3C=C1CCc1c2[nH]c2ccc(F)cc12` (centres unmarked) [Compound 267, 3-(4-fluoro-phenyl)-8-fluoro-11b-methyl-5,6,12-trihydro-indazolo[5,6-a]carbazole], the “GRE Activation Max fold activation” value at GR [1] (Table 2, fold) amounted to 18. The 50% inhibitory concentration (IC50) (commonly the concentration needed to halve the response being measured) in experiment [2] (setting [5]) is 130 nM. Further, in the experiment with Coll A (Table 2), the Emax was found to be 75% and the EC50 worked out at 100 nM.

As to `Cc1cc(C(O)C2CCCC3=Cc4c(cnn4-c4ccc(F)cc4)CC32C)ccc1O` (centres unmarked) [Compound 235, 4-{[1-(4-Fluoro-phenyl)-4a-methyl-4,4a,5,6,7,8-hexahydro-1H-benzo[f]indazol-5-yl]-hydroxy-methyl}-2-methyl-phenol], on GR [3], the EC50 is 16.6 nM and the Emax was 74%. For the same compound, the “GRE activation max fold activation” value at GR [1] (Table 4, fold) was 76. At GR [1] (setting [4]), the EC50 stood at 81 nM. Moreover, the “GR binding RBA (dex = 100)” value in experiment [2] was 110.

Consider `CC12Cc3cnn(-c4cccc(C#Cc5ccccc5)c4)c3C=C1CCCC2=O` (centres unmarked) [Compound 261, 4a-Methyl-1-(3-phenylethynyl-phenyl)-1,4,4a,6,7,8-hexahydro-benzo[f]indazol-5-one], for which the IC50 in experiment [2] (setting [6]) stood at 174 nM.

As to `CC12Cc3cnn(-c4ccc(F)cc4)c3C=C1CCC(=Cc1c3ccccc3cc3ccccc13)C2=O` (centres unmarked) [Compound 269, 6-Anthracen-9-ylmethylene-1-(4-fluoro-phenyl)-4a-methyl-1,4,4a,6,7,8-hexahydro-benzo[f]indazol-5-one], the EC50 at GR [1] (Table 2, read-out: GRE Activation GR pot (EC50)) is greater than 5000 nM; in the experiment on Coll A (Table 2), greater than 5000 nM. In addition, in experiment [2] (setting [5]), the IC50 is 43 nM.

With `CC12Cc3cnn(-c4ccc(F)cc4)c3C=C1CCc1c2[nH]c2ccc(Br)cc12` (centres unmarked) [Compound 263, 3-(4-fluoro-phenyl)-8-bromo-11b-methyl-5,6,12-trihydro-indazolo[5,6-a]carbazole], in experiment [2] (setting [5]), the IC50 came to 708 nM.

Consider `Cc1cc(O)cc(C)c1C(=O)C1CCCC2=Cc3c(cnn3-c3ccc(F)cc3)CC21C` (centres unmarked) [Compound 228, 4-{[1-(4-Fluoro-phenyl)-4a-methyl-4,4a,5,6,7,8-hexahydro-1H-benzo[f]indazol-5-yl]-keto-methyl}-3,5-dimethyl-phenol], for which, in experiment [2], the “GR Binding RBA (dexamethasone = 100)” value is 16.

With `COc1ccc2[nH]c3c(c2c1)CCC1=Cc2c(cnn2-c2ccc(F)cc2)CC13C` (centres unmarked) [Compound 265, 3-(4-fluoro-phenyl)-8-methoxy-11b-methyl-5,6,12-trihydro-indazolo[5,6-a]carbazole], the IC50 in experiment [2] (setting [5]) was determined as 239 nM.

Turning to `CC12Cc3cnn(-c4ccc(F)cc4)c3C=C1CCCC2=O` (centres unmarked) [Compound 205, 1-(4-Fluoro-phenyl)-4a-methyl-1,4,4a,6,7,8-hexahydro-benzo[f]indazol-5-one], the IC50 in experiment [2] (setting [6]) was 436 nM.

`COCOC(c1c(C)cc(O)cc1C)C1CCCC2=Cc3c(cnn3-c3ccc(F)cc3)CC21C` (centres unmarked) [Compound 232, 4-{[1-(4-Fluoro-phenyl)-4a-methyl-4,4a,5,6,7,8-hexahydro-1H-benzo[f]indazol-5-yl]-methoxymethoxy-methyl}-3,5-dimethyl-phenol]: the EC50 at GR [1] (Table 1, read-out: GR pot(EC50)) was 82 nM. The “GR Binding RBA (dexamethasone = 100)” value in experiment [2] turned out to be 26.
